From patent publication US20170209445A1, “KINASE INHIBITORS” (Respivert Limited, priority 2014, published 2017)

Experiments:
[1] = test system: HT29 cells; test: IL-1β-induced IL-8 release in HT29 cells; assay type: cell-based; conditions: Homo sapiens, HT-29; IL-1β-stimulated HT29 cells; read-out: IC50 Values for Inhibition of Cytokine Release HT29 cells IL-8
Procedure: HT29 cells, a human colon adenocarcinoma cell line, are plated in a 96 well plate (24 hrs) and pre-treated with compounds at the desired concentration for 2 hours before addition of 5 ng/mL of IL-1β (Abcam) for 24 hours. Supernatants are harvested for IL-8 quantification by Sandwich ELISA (Duo-set, R&D System). The IC50 is determined from the dose response curve.

[2] = molecular target: T1, p38 MAPKα (Homo sapiens, UniProt Q16539); test: p38 MAPKα enzyme inhibition (Method 2), FRET Z-LYTE; assay type: biochemical
T1 construct: purchased Invitrogen
T1 sequence (Q16539 whole entry): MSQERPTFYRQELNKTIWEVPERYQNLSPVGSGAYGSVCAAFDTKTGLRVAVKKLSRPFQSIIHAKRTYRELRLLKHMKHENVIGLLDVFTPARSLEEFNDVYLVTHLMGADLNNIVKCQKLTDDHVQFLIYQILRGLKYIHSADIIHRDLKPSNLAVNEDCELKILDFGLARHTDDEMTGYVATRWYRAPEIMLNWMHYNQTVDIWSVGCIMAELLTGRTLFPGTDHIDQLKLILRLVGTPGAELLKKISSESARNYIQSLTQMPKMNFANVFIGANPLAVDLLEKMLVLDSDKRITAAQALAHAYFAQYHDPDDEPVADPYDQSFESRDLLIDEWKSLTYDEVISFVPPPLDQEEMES
Procedure: (§1) The enzyme inhibitory activities of compounds disclosed herein are determined by FRET using synthetic peptides labelled with both donor and acceptor fluorophores (Z-LYTE, Invitrogen Ltd., Paisley, UK).
The inhibitory activities of test compounds against the p38 MAPKα isoform (MAPK14: Invitrogen), are evaluated indirectly by determining the level of activation/phosphorylation of the down-stream molecule, MAPKAP-K2. The p38 MAPKα protein (80 ng/mL, 2.5 μL) is mixed with the test compound (2.5 μL of either 4 μg/mL, 0.4 μg/mL, 0.04 μg/mL or 0.004 μg/mL) for 2 hr at RT. […] The mixture is incubated for 1 hr at RT. Development reagent (protease, 5 μL) is added for 1 hr prior to detection in a fluorescence microplate reader (Varioskan® Flash, ThermoFisher Scientific).
This method follows the same steps as Method 1 above, but utilises a higher concentration of the p38 MAPKα protein (2.5 μL of 200 ng/mL protein instead of 2.5 μL of 80 ng/mL protein) for mixing with the test compound.
(§2) In all cases, the site-specific protease cleaves non-phosphorylated peptide only and eliminates the FRET signal. Phosphorylation levels of each reaction are calculated using the ratio of coumarin emission (donor) over fluorescein emission (acceptor), for which high ratios indicate high phosphorylation and low ratios indicate low phosphorylation levels.

[3] = molecular target: T2, Lck (Homo sapiens, UniProt P06239); test: KINOMEscan dissociation constant, Lck; assay type: binding
T2 construct: purchased DiscoveRx Corporation (LeadHunter Discover Services, KINOMEscan)
T2 sequence (P06239 whole entry): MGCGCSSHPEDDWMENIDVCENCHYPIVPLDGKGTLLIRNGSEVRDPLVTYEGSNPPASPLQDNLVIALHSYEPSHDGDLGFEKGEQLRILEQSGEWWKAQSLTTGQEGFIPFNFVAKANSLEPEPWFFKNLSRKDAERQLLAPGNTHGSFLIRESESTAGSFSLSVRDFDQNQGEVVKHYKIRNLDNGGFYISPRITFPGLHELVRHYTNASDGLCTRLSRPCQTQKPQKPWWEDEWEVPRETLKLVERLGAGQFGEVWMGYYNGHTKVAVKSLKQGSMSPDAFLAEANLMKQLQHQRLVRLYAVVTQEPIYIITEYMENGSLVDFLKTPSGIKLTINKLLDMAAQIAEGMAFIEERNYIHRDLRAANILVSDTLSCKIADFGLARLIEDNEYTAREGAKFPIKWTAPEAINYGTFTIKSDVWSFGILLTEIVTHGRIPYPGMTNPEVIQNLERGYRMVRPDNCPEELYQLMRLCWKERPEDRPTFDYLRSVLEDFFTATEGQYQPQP
Procedure: (§3) Kinase enzyme binding activities of compounds disclosed herein may be determined using a proprietary assay which measures active site-directed competition binding to an immobilized ligand (Fabian, M. A. et al., Nature Biotechnol., 2005, 23:329-336). These assays may be conducted by DiscoverX (formerly Ambit; San Diego, Calif.). The percentage inhibition produced by incubation with a test compound may be calculated relative to the non-inhibited control.

[4] = molecular target: T3, GSK3α (Homo sapiens, UniProt P49840); test: GSK3α enzyme inhibition (Method 2), FRET Z-LYTE; assay type: biochemical
T3 construct: purchased Invitrogen
T3 sequence (P49840 whole entry): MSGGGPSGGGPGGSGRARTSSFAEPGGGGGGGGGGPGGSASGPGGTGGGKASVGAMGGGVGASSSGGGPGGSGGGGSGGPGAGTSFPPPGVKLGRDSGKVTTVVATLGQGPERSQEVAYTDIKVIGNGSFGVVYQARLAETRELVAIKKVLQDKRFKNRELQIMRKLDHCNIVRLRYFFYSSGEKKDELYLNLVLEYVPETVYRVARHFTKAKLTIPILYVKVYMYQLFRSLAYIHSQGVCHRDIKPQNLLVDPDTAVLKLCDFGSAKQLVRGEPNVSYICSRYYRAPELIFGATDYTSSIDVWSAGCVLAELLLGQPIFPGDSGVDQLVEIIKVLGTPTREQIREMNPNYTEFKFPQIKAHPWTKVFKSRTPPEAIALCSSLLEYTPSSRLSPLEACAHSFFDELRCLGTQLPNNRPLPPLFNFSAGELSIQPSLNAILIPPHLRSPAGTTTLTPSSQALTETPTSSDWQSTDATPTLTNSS
Procedure: as §1
The inhibitory activities of compounds of the invention against the GSK 3α enzyme isoform (Invitrogen), are evaluated by determining the level of activation/phosphorylation of the target peptide. The GSK3-α protein (500 ng/mL, 2.5 μL) is mixed with the test compound (2.5 μL at either 4 μg/mL, 0.4 μg/mL, 0.04 μg/mL, or 0.004 μg/mL) for 2 hr at RT. The FRET peptide (8 μM, 2.5 μL), which is a phosphorylation target for GSK3α, and ATP (40 μM, 2.5 μL) are then added to the enzyme/compound mixture and the resulting mixture incubated for 1 hr. Development reagent (protease, 5 μL) is added for 1 hr prior to detection in a fluorescence microplate reader (Varioskan® Flash, ThermoFisher Scientific).
as §2
This method follows the same steps as Method 1 above, but utilises a shorter period of mixing of the test compound (105 minutes instead of 2 hours) with the GSK3-α protein.

[5] = molecular target: T1, p38 MAPKα; test: KINOMEscan dissociation constant, p38 MAPKα; assay type: binding
Procedure: as §3

[6] = test system: PBMCs; test: IFN gamma release in CD3/CD28 stimulated PBMC cells; assay type: cell-based; conditions: Homo sapiens, read-out: IC50 Values for Inhibition of Cytokine Release PBMCs IFNγ
Procedure: (§4) PBMCs from healthy subjects are separated from whole blood using a density gradient (Lymphoprep, Axis-Shield Healthcare). Cells are added to a 96 well plate pre-coated with a mixture of CD3/CD28 monoclonal antibodies (0.3 μg/mL eBioscience and 3 μg/mL BD Pharmingen respectively). Compound at the desired concentration is then added to the wells and the plate left for 3 days under normal tissue culture conditions. Supernatants are harvested and IL-2 and IFN gamma release determined by Sandwich ELISA (Duo-set, R&D System). The IC50 is determined from the dose response curve.

[7] = test system: PBMCs; test: LPS-induced IL-8 release in PBMC cells; assay type: cell-based; conditions: Homo sapiens, LPS-stimulated PBMCs, read-out: IC50 Values for Inhibition of Cytokine Release PBMCs IL-8
In short: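 Healthy-donor PBMCs isolated by density gradient were pretreated with compound for 2 h, then stimulated with 1 ng/mL LPS (E. coli 0111:B4) for 24 h at 37° C., 5% CO2. IL-8 and TNFα in supernatants measured by sandwich ELISA.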

[8] = Hydrolytic stability study; assay type: physicochemical; conditions: DMSO/water (3:1), 1 mg/mL, experiment in which Example 2 was tested
Procedure: Chemical stability of compounds of the invention was assessed in a mixture of DMSO and water (3:1) at a test compound concentration of 1 mg/mL
General HPLC Procedure • Agilent, Waters X-Select C18, 2.5 μm, 4.6×30 mm column, 4 min method, 5-95% • MeCN/water (0.1% formic acid). • Flow rate 2.5 ml/min. • Column Oven Temperature 40° C. • Detection 254 nm.
Sample Preparation • A 1.0 mg sample of test compound was dissolved in 1 mL of DMSO/water (3:1) and the resulting mixture was stirred at rt overnight.
Recording Stability • A 50 μL aliquot of the test solution was removed and analysed in duplicate by 5 μL HPLC injections. The peak area for the test compound (taken to be 100% product, 0% degradation) was recorded following manual integration of the corresponding UV trace. The area retention time was also recorded. • The test solution was heated to 60° C. internal temperature (65° C. block temperature), with stirring, and timing commenced once the target temperature had been reached. After 5 and 24 h, samples were removed and analysed by HPLC (5 μL injections). In all cases, 5 μL injections were used and the samples analysed in duplicate. • The peak areas for the test compounds were recorded at both subsequent timepoints and the % decomposition calculated from the % change in peak area over time.

[9] = test system: PBMCs; test: IL-2 release in CD3/CD28 stimulated PBMC cells; assay type: cell-based; conditions: Homo sapiens, read-out: IC50 Values for Inhibition of Cytokine Release PBMCs IL-2
Procedure: as §4

[10] = molecular target: T4, c-Src (Homo sapiens, UniProt P12931); test: c-Src enzyme inhibition, FRET Z-LYTE; assay type: biochemical
T4 construct: purchased Invitrogen
T4 sequence (P12931 whole entry): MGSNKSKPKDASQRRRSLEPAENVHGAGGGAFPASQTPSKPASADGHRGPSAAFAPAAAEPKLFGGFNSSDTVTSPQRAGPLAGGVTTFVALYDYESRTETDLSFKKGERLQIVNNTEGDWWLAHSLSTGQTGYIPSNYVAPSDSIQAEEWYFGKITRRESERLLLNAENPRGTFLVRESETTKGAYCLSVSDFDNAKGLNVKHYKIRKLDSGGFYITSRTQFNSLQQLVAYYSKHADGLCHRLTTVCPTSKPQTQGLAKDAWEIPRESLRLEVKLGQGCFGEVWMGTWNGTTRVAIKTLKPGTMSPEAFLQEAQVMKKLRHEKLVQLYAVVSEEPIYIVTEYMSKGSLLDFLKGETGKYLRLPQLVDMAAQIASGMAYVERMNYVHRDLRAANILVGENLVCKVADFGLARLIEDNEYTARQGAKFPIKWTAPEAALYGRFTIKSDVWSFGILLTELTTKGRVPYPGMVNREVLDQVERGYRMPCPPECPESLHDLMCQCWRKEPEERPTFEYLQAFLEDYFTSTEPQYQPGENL
Procedure: as §1
(§5) The inhibitory activities of compounds of the invention against c-Src and Syk enzymes (Invitrogen), are evaluated in a similar fashion to that described hereinabove. The relevant enzyme (3000 ng/mL or 2000 ng/mL respectively, 2.5 μL) is incubated with the test compound (either 4 μg/mL, 0.4 μg/mL, 0.04 μg/mL, or 0.004 μg/mL, 2.5 μL each) for 2 hr at RT. The FRET peptides (8 μM, 2.5 μL), and appropriate ATP solutions (2.5 μL, 800 μM for c-Src, and 60 μM ATP for Syk) are then added to the enzymes/compound mixtures and incubated for 1 hr. Development reagent (protease, 5 μL) is added for 1 hr prior to detection in a fluorescence microplate reader (Varioskan® Flash, ThermoFisher Scientific).
as §2

[11] = molecular target: T5, Syk (Homo sapiens, UniProt P43405); test: Syk enzyme inhibition, FRET Z-LYTE; assay type: biochemical
T5 construct: purchased Invitrogen
Procedure: as §1, §5, §2

[12] = molecular target: T5, Syk; test: KINOMEscan dissociation constant, Syk; assay type: binding
Procedure: as §3

## COCCOCCOCCOc1cc(Nc2ncc3cc(-c4cc(C(=O)Nc5cc(C(C)(C)C)cc(NS(C)(=O)=O)c5OC)ccc4C)ccc3n2)cc(OC)c1 [Example 2, N-(5-(tert-Butyl)-2-methoxy-3-(methylsulfonamido)phenyl)-3-(2-((3-methoxy-5-(2-(2-(2-methoxyethoxy)ethoxy)ethoxy)phenyl)amino)quinazolin-6-yl)-4-methylbenzamide]
[1]
  IC50: 78.7 nM
[2]
  IC50: 32 nM
[3]
  Kd: 13 nM
[4]
  IC50: > 12500 nM
[5]
  Kd: 15 nM
[6]
  IC50: 53.3 nM
[7]
  IC50: 26 nM
[8]; 60° C., 300 min
  % Parent Remaining: 104.2%
[8]; 60° C., 1440 min
  % Parent Remaining: 102.9%
[8]; time 0 min
  % Parent Remaining: 100%
[9]
  IC50: 126 nM
[10]
  IC50: 27 nM
[11]
  IC50: > 1250 nM
[12]
  Kd: 68 nM
